A word on the melting point: it is the temperature of the solid-liquid transition.

For data set [1], the system named is production of nitric oxide (NO). In words: Production of nitric oxide (NO) in cultures of mouse peritoneal cells stimulated with IFN-γ plus LPS (Griess reagent). Type of data set: cell-based, mice. The note with it: substance 50 μmol·l^−1, IFN-g plus LPS, 24 h. The gist of the method: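 C57BL/6 mouse peritoneal cells (2×10^6/mL) stimulated with IFN-γ (5000 pg/mL) plus LPS (100 pg/mL), compounds at 50 μmol·l^−1. Nitrite measured by Griess reagent after 24 h, expressed as % of stimulated control (set 100%); IC50 is concentration reducing NO by 50%.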
In general terms: Nitrite, measured by Griess reagent, commonly stands in for NO production.

Data set [2] relates to production of prostaglandin E2 (PGE2). Kind of data set: Production of prostaglandin E2 (PGE2) in cultures of mouse peritoneal cells stimulated with LPS (ELISA kit). The conditions noted are these: for Production of prostaglandins IC50 (μmol · 1^−1) average value and range of values: Table 3B, 6 h; for Production of prostaglandins in % of the controls: Table 3A, substance 50 μmol·l^−1, 6 h. It counts as cell-based, mice. The gist of the method:
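C57BL/6 mouse peritoneal cells (3×10^6/mL) stimulated with LPS (10 ng/mL). PGE2 measured by ELISA.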

The next data set has as its system peritoneal cells of mice. Kind of data set: Cell viability of mouse peritoneal cells (WST-1 kit). Type of data set: cell-based. The note with it: substance 50 μmol·l^−1, 24 h; for Cell viabilities in % of the controls: Table 3B; for Cell viability in % of the controls: Table 3A. In a few lines: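 C57BL/6 mouse peritoneal cells (1×10^6/mL) cultured 24 h with compounds at 50 μmol·l^−1. Viability read with WST-1 tetrazolium salt and expressed as percent of untreated control cells (100%).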
(Formazan colour is commonly taken as a measure of viable cells.)

Molecules are shown by their SMILES.

Consider `CCc1c(Cl)nc(NC=O)nc1Cl` [Substance 49, 4,6-dichloro-5-ethyl-2-formamidopyrimidine], for which the melting point is 116 to 118 °C.
On the same count and under the same terms, then `CCCCc1c(Cl)nc(N)nc1-c1ccsc1` [Substance 42, 2-amino-5-butyl-4-chloro-6-(thiophen-3-yl)pyrimidine], with 154 to 155 °C; and `C#CCc1c(Cl)nc(NC=O)nc1Cl` [Substance 58, 4,6-dichloro-2-formamido-5-(prop-2-yn-1-yl)pyrimidine], with 127 to 128 °C; and `CCCCc1c(-c2cccnc2)nc(N)nc1-c1cccnc1` [Substance 46, 2-amino-5-butyl-4,6-bis(pyridin-3-yl)pyrimidine], with 173 to 174 °C.
`CCCCc1c(Cl)nc(O)nc1Cl` [Substance 65, 5-butyl-4,6-dichloro-2-hydroxypyrimidine]: the melting point was in the range of 73 to 75 °C.
On the same count and under the same terms, then `CCCCc1c(Cl)nc(N(C)C)nc1Cl` [Substance 63, 5-butyl-4,6-dichloro-2-(dimethylamino)pyrimidine], with 42 to 45 °C; and `Cc1c(Cl)nc(NC=O)nc1Cl` [Substance 48, 4,6-dichloro-2-formamido-5-methylpyrimidine], with 123 to 124 °C.
Still for that read-out and setting: then `CC(C)c1c(Cl)nc(NC=O)nc1Cl` [Substance 53, 4,6-dichloro-2-formamido-5-isopropylpyrimidine], with 95 to 96 °C; and `[2H]C([2H])([2H])C([2H])([2H])C([2H])([2H])C([2H])([2H])c1c(Cl)nc(N)nc1Cl` [Substance 35, 2-amino-5-(perdeutero-butyl)-4,6-dichloropyrimidine], with 170 to 171 °C.
The same measure, in the same setting: then `Nc1nc(I)c(Cc2ccccc2)c(I)n1` [Substance 38, 2-amino-5-benzyl-4,6-diiodopyrimidine], with 198 to 199 °C; and `Nc1nc(Br)c(Cc2ccccc2)c(Br)n1` [Substance 40, 2-amino-5-benzyl-4,6-dibromopyrimidine], with 154 to 155 °C; and `CCCCc1c(Cl)nc(/N=C/N(C)C)nc1Cl` [Substance 19, 5-butyl-4,6-dichloro-2-{[(dimethylamino)methylene]amino}pyrimidine], with 65 to 67 °C.
On to `CCC(C)c1c(I)nc(N)nc1I` (centres unmarked) [Substance 36, 2-amino-5-(sec-butyl)-4,6-diiodopyrimidine], for which the melting point lay within 173 to 174 °C.
The same measure, in the same setting: then `CCCCCCc1c(Cl)nc(NC=O)nc1Cl` [Substance 55, 4,6-dichloro-2-formamido-5-hexylpyrimidine], with 80 to 81 °C.
Turning to `CCCCc1c(-c2ccc(F)cc2)nc(N)nc1-c1cccs1` [Substance 87], the “Production of nitric oxide in % of the controls” value in data set [1] (Table 3B) is given as 48.59 ± 10.92; n = 3 % of the controls. Further, the “Production of prostaglandins IC50 (μmol · 1^−1) average value and range of values” (“Production of prostaglandins IC50” below) in data set [2] is listed as 23.05 ± 11.33; n = 4 μmol · 1^−1. The “Cell viabilities in % of the controls” value in the data set on peritoneal cells of mice was 125.94 ± 4.49; n = 8 % of the controls.
For `CCCCc1c(-c2ccc(F)cc2)nc(N)nc1-c1ccsc1` [Substance 108], in that order: 64.92 ± 2.30; n = 4 % of the controls, 47.21 ± 2.59; n = 2 μmol · 1^−1 and 124.71 ± 15.20; n = 4 % of the controls.
For `CCCCc1c(Cl)nc(N)nc1-c1ccc(F)cc1` [Substance 71], in that order: 37.07 ± 6.31; n = 4 % of the controls, 26.66 ± 11.71; n = 4 μmol · 1^−1 and 94.59 ± 7.75; n = 4 % of the controls.
For `CCCCc1c(-c2cccnc2)nc(N)nc1-c1ccsc1` [Substance 110], in that order: 62.00 ± 2.93; n = 4 % of the controls, 64.72 ± 14.00; n = 2 μmol · 1^−1 and 90.73 ± 10.89; n = 4 % of the controls.
For the compound `CCc1c(Cl)nc(NC=O)nc1Cl` [Substance 49], the “Production of nitric oxide in % of the controls” value in data set [1] (Table 3A) is 5.76 ± 2.48 % of the controls. Moreover, the “Production of prostaglandins in % of the controls” value in data set [2] is given as 20.58 ± 2.13 % of the controls. Further, the “Cell viability in % of the controls” value in the data set on peritoneal cells of mice was 111.37 ± 10.44 % of the controls.
Turning to `CCCCc1c(-c2ccccn2)nc(N)nc1-c1cccc2ccccc12` [Substance 135], the “Production of nitric oxide in % of the controls” value in data set [1] (Table 3B) is given as 18.45 ± 5.66; n = 6 % of the controls. Moreover, in data set [2], the “Production of prostaglandins IC50” value is given as 28.69 ± 0.00; n = 2 μmol · 1^−1. For the same compound, the “Cell viabilities in % of the controls” value in the data set on peritoneal cells of mice was 64.97 ± 12.85; n = 8 % of the controls.
For `C=CCc1c(Cl)nc(NC=O)nc1Cl` [Substance 57], the “Production of nitric oxide in % of the controls” value in data set [1] (Table 3A) was 1.21 ± 0.28 % of the controls. In data set [2], the “Production of prostaglandins in % of the controls” value was 16.42 ± 0.64 % of the controls. Further, the “Cell viability in % of the controls” value in the data set on peritoneal cells of mice was 95.37 ± 15.40 % of the controls.
Turning to `CCCCc1c(-c2ccco2)nc(N)nc1-c1cc2ccccc2o1` [Substance 122], in data set [1] (Table 3B), the “Production of nitric oxide in % of the controls” value is given as 35.04 ± 5.71; n = 6 % of the controls. Further, in data set [2], the “Production of prostaglandins IC50” value is given as 68.47 ± 8.71; n = 2 μmol · 1^−1. The “Cell viabilities in % of the controls” value in the data set with peritoneal cells of mice is 81.66 ± 4.41; n = 8 % of the controls.
For `CCCCc1c(-c2ccc(OC)cc2)nc(N)nc1-c1cc2ccccc2o1` [Substance 117], in that order: 89.91 ± 4.02; n = 6 % of the controls, 64.65 ± 4.88; n = 2 μmol · 1^−1 and 75.92 ± 9.72; n = 8 % of the controls.
Regarding `CCCCc1c(-c2cccnc2)nc(N)nc1-c1cc2ccccc2s1` [Substance 128], the “Production of nitric oxide in % of the controls” value in data set [1] (Table 3B) is recorded as 64.91 ± 6.60 n = 4 % of the controls. Besides, the “Production of prostaglandins IC50” value in data set [2] is reported as 31.10 ± 10.43; n = 4 μmol · 1^−1. The “Cell viabilities in % of the controls” value with peritoneal cells of mice was 79.62 ± 4.12; n = 8 % of the controls.
As to `C=CCc1c(Cl)nc(N=CN(C)C)nc1Cl` [Substance 17], the “Production of nitric oxide in % of the controls” value in data set [1] (Table 3A) is 6.2 ± 0.91 % of the controls. For the same compound, the “Production of prostaglandins in % of the controls” value in data set [2] is on record as 15.72 ± 0.46 % of the controls. Also, the “Cell viability in % of the controls” value in the data set on peritoneal cells of mice was 136.13 ± 11.32 % of the controls.
For `CCCCc1c(-c2ccc(F)cc2)nc(N)nc1-c1ccoc1` [Substance 103], the “Production of nitric oxide in % of the controls” value in data set [1] (Table 3B) is reported as 66.44 ± 3.19; n = 6 % of the controls. Also, the “Production of prostaglandins IC50” value in data set [2] is 66.80 ± 8.64; n = 4 μmol · 1^−1. In addition, the “Cell viabilities in % of the controls” value in the data set on peritoneal cells of mice is listed as 147.62 ± 3.25; n = 8 % of the controls.
For `CCCCc1c(-c2ccc(OC)cc2)nc(N)nc1-c1ccc(OC)cc1` [Substance 74], in that order: 86.27 ± 4.16; n = 4 % of the controls, 38.22 ± 5.59; n = 2 μmol · 1^−1 and 98.75 ± 5.63; n = 12 % of the controls.
For `CCCCc1c(-c2cc3ccccc3o2)nc(N)nc1-c1cc2ccccc2o1` [Substance 125], in that order: 67.76 ± 6.80; n = 6 % of the controls, 73.07 ± 1.91; n = 2 μmol · 1^−1 and 76.82 ± 8.89; n = 8 % of the controls.

These data come from patent publication US8883798B2, “Pyrimidine compounds inhibiting the formation of nitric oxide and prostaglandin E2, method of production thereof and use thereof” (Ustav Organicke Chemie a Biochemie Akademie Ved CR, V.V.I., priority 2011, dated 2014).
